We go through one substance from US20160000762A1, “IMPROVING COGNITIVE FUNCTION” (THE REGENTS OF THE UNIVERSITY OF CALIFORNIA, priority 2013, published 2016).

Series [1] can be described thus: Cerebrovascular permeability and pharmacokinetic analysis of BTA-EG4 in mice. It is filed as in vivo, male CD-1 mice. The following applies: 10 mg/kg i.p. The procedure: Cerebrovascular permeability and pharmacokinetic analysis of BTA-EG4 in wild-type mice. The partitioning of BTA-EG4 between plasma and brain was studied in male CD-1 mice. The mice were dosed with 10 mg/kg (in 10% DMSO/90% PBS) intraparitoneally (IP, n=2 per time point) and the concentration of BTA-EG4 in the plasma and brain was measured over time. Blood was collected via cardiac puncture and was pooled in EDTA tubes, centrifuged, and the plasma isolated. The brain was collected from each mouse, snap frozen, and homogenized in 2 mL PBS. The concentration of BTA-EG4 in the plasma and brain at each time point was determined by LC/MS/MS and the concentrations of BTA-EG4 in the plasma and brain were plotted as a function of time. Pharmacokinetic parameters for the plasma and brain profile of BTA-EG4 were also calculated: half-life for BTA-EG4 in the plasma and brain (t1/2), the maximum concentration (Cmax) of BTA-EG4 in the plasma and brain, the area under the concentration-time curve (AUC), the brain-to-plasma ratio (BB), and the logarithmic brain-to-plasma ratio (Log BB).

Series [2] concerns primary hippocampal neurons. In words: Synaptic marker immunostaining, primary hippocampal neurons. The following applies: 5 μM, 24 h. It is filed as cell-based, Sprague-Dawley rats. The procedure:
Primary neuron culture and immunostaining. Primary hippocampal neurons from E19 Sprague-Dawley rats were cultured at 150 cells/mm^2 as previously described (Pak et al., 2001). Neurons were transfected using Lipofectamine™ 2000 (Invitrogen, Carlsbad, Calif., USA) or calcium phosphate precipitation with GFP+PLL, GFP+APP shRNA, or GFP+APP and treated with BTA-EG4. The following antibodies were used: mouse anti-GFP (Novus Biologicals, 9F9.F9), rabbit anti-GFP (Invitrogen, A11122), rabbit anti-GluR1 (Calbiochem, PC246), mouse anti-GluR2 (BD Pharmagen, 556341), mouse anti-postsynaptic density (PSD)-95 (NeuroMabs, Davis, Calif., USA), mouse anti-Synaptophysin (Sigma Aldrich, s5768), rabbit APP N-terminal (Sigma-Aldrich, A8967), anti-Ras (BD Biosciences, 610001), anti-RasGRF1 (Santa Cruz, C-20; BD Biosciences, 610149), anti-ERK1/2 (Cell Signaling, 4695), anti-p-ERK1/2 (Invitrogen, 36880), anti-CREB (Cell Signaling, D76D11), anti-p-CREB (Millipore, 06-519), and mouse anti-c-Myc (Novus Biologicals, 9E10). Cultured hippocampal neuron images were acquired by LSM 510 laser scanning confocal microscope (Zeiss). Confocal zseries image stacks encompassing entire dendrite segments were analyzed using MetaMorph software (Universal Imaging Corporation, Downington, Pa., USA). […]

The next series concerns T1, APP.
T1 construct: expressed in transfected cells; host or cells: primary hippocampal neurons from E19 Sprague-Dawley rats
In words: Live cell surface immunostaining, primary hippocampal neurons. The format is cell-based, Sprague-Dawley rats. The following applies: 5 μM, 24 h. The procedure: Primary neuron culture and immunostaining. Primary hippocampal neurons from E19 Sprague-Dawley rats were cultured at 150 cells/mm^2 as previously described (Pak et al., 2001). Neurons were transfected using Lipofectamine™ 2000 (Invitrogen, Carlsbad, Calif., USA) or calcium phosphate precipitation with GFP+PLL, GFP+APP shRNA, or GFP+APP and treated with BTA-EG4. The following antibodies were used: mouse anti-GFP (Novus Biologicals, 9F9.F9), rabbit anti-GFP (Invitrogen, A11122), rabbit anti-GluR1 (Calbiochem, PC246), mouse anti-GluR2 (BD Pharmagen, 556341), mouse anti-postsynaptic density (PSD)-95 (NeuroMabs, Davis, Calif., USA), mouse anti-Synaptophysin (Sigma Aldrich, s5768), rabbit APP N-terminal (Sigma-Aldrich, A8967), anti-Ras (BD Biosciences, 610001), anti-RasGRF1 (Santa Cruz, C-20; BD Biosciences, 610149), anti-ERK1/2 (Cell Signaling, 4695), anti-p-ERK1/2 (Invitrogen, 36880), anti-CREB (Cell Signaling, D76D11), anti-p-CREB (Millipore, 06-519), and mouse anti-c-Myc (Novus Biologicals, 9E10). Cultured hippocampal neuron images were acquired by LSM 510 laser scanning confocal microscope (Zeiss). Confocal zseries image stacks encompassing entire dendrite segments were analyzed using MetaMorph software (Universal Imaging Corporation, Downington, Pa., USA).
Live cell surface immunostaining. […] Surface-labeled APP was detected with ALEXA FLUORO-555 secondary antibodies. […]

In the next series the test system is AMPAR and NMDAR subunits. The experiment in a line: Slice surface biotinylation, AMPAR and NMDAR subunits in CA1 slices. The format is in vivo, mice. Here is the method: Slice surface biotinylation. Hippocampal slices (400 μm thick) were prepared as described above. CA3 and DG regions were cut away after the slice preparation to isolate CA1. After 30 min recovery at room temperature, the slices were transferred to 30° C. for additional 30 min recovery. The slices were then transferred to ice-cold ACSF for 10 min, and subsequently to ice-cold ACSF containing 1 mg/ml biotin (EZ-Link Sulfo-NHS-SS-Biotin, Pierce) saturated with 5% CO2/95% O2 for 15 min. The slices were then washed in tris-buffered saline (TBS: 50 mM Tris, 0.9% NaCl, pH 7.4) containing 100 mM glycine 5 times for 1 min each before homogenized in ice-cold 0.2% SDS/1% Triton X-100 IPB (20 mM Na3PO4, 150 mM NaCl, 10 mM EDTA, 10 mM EGTA, 10 mM Na4P2O7, 50 mM NaF, and 1 mM Na3VO4, pH 7.4; with […] okadaic acid and 10 KIU/ml aprotinin) by 30 gentle strokes using glass-Teflon tissue homogenizers (Pyrex). The homogenates were centrifuged for 10 min at 13,200×g, 4° C. Protein concentration of the supernatant was normalized to 0.6-1.5 mg/ml. Some of the supernatants were saved as inputs, and the remaining supernatant was mixed with neutravidin slurry [1:1 in 1% Triton X-100 IPB (TX-IPB)] and rotated overnight at 4° C. The neutravidin beads were isolated by brief centrifugation at 1,000×g, and washed 3×1% TX-IPB, 3×1% TX-IPB+500 mM NaCl, followed by 2×1% TX-IPB. The biotinylated surface proteins were then eluded from the neutravidin beads by rotating at room temperature for 15 min in gel sample buffer with 2 mM DTT. The input (total homogenate) and biotinylated samples (surface fraction) were run on separate gels, and processed for immunoblot analysis using GluA1 (sc-55509, Santa Cruz), GluA2/3 (07-598, Upstate/Millipore), GluN1 (a gift from Dr. R. Huganir), GluN2A (07-632, Upstate/Millipore), and GluN2B (71-8600, Invitrogen) antibodies. NMDAR subunit blots were developed using enhanced chemifluorescence substrate (ECF™ substrate, Amersham). AMPAR blots were probed simultaneously with GluR1 and GluR2/3 antibodies followed by second antibodies linked to Cy5 and Cy3. All blots were scanned using TYPHOON™ 9400 (GE Health), and quantified using Image Quant TL software (GE Health). The signal of each sample on a blot was normalized to the average signal from the control group to obtain the % of average control values, which were compared across groups using unpaired Student's t-test.
To test whether the increase in functional excitatory synapses is via cell surface recruitment of glutamate receptors, we performed steady-state surface biotinylation using acute hippocampal slices obtained from mice injected with BTA-EG4 (30 mg/kg) or control vehicle for 2 weeks. Both the cell surface and total levels of major AMPAR subunits GluA1 and GluA2, as well as NMDAR subunits GluN1, GluN2A and GluN2B, were quantified.

T1 sequence (P05067 18-770): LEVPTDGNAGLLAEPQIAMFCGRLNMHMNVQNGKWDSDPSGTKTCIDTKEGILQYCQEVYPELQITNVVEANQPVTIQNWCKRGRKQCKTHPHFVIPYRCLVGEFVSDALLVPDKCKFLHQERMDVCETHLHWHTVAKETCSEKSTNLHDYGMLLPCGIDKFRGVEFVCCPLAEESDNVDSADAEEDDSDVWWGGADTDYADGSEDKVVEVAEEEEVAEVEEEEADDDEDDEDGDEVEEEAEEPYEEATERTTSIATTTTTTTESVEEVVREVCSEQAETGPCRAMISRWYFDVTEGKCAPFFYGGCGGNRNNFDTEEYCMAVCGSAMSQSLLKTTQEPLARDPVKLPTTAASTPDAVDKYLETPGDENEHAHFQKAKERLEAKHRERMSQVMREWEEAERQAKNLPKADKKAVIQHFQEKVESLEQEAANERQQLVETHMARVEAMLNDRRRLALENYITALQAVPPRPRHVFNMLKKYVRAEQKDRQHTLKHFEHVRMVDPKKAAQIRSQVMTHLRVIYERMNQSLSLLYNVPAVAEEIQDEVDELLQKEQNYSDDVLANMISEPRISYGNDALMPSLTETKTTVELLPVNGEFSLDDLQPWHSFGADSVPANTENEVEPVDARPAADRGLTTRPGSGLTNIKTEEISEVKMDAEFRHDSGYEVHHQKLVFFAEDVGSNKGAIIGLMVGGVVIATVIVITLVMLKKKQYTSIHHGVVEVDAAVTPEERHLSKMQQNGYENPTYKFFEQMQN

As for BTA-EG4, the “blood brain barrier crossing” value in series [1] is listed as “readily crosses the blood brain barrier”. In series [1] (n=2 per time point, estimated value), the “logarithmic brain-to-plasma ratio (log BB)” value is listed as 0.43. In series [2], the “number of puncta stained for PSD-95” value was “increased” and the “number of puncta stained for synaptophysin” value is recorded as “increased”. Also, in the series on APP, the “cell surface levels of APP” value was “increased” and the “total levels of APP” value was “without affecting”. For the same substance, the “cell surface or total expression of GluA1, GluA2, GluN1, GluN2A, GluN2B” value in the series with AMPAR and NMDAR subunits (30 mg/kg, 2 weeks) is “no significant change”. Besides, the GluA1/β-actin ratio in the series on AMPAR and NMDAR subunits (total homogenate, CTRL=0.96±0.10) is 1.06±0.12. In addition, the GluA2/β-actin ratio in the series with AMPAR and NMDAR subunits (total homogenate, CTRL=0.98±0.09) stood at 1.27±0.14. In the series on AMPAR and NMDAR subunits (total homogenate, CTRL=0.98±0.12), the GluN1/β-actin ratio stood at 1.27±0.05. Further, the GluN2B/β-actin ratio with AMPAR and NMDAR subunits (total homogenate, CTRL=1.02±0.11) was determined as 1.33±0.14. Besides, the GluN2A/β-actin ratio in the series on AMPAR and NMDAR subunits (total homogenate, CTRL=1.03±0.08) amounted to 1.04±0.14.
